Organism: Rattus norvegicus
Test: Open TG-GATES - Regimen: Daily Repeat
Format: toxicity, organism-based, Sprague-Dawley
Set-up: regimen Daily Repeat, gender Male, age 6 weeks
Details: in vivo, po, 0 mg/kg, […], route gavage, dose level Control; for KIDNEY_L / KIDNEY_R / KIDNEY_TOTAL: tissue Kidney; for LIVER: tissue Liver; for A/G / ALP / ALT / AST / BUN / CRE / Ca / Cl / DBIL / GLC / IP / K / LDH / Na / PL / RALB / TBIL / TC / TG / TP / gamma-GTP: tissue Plasma

O=C1CN(/N=C/c2ccc([N+](=O)[O-])o2)C(=O)N1 [NITROFURANTOIN]
Lym (tissue Blood, time 28 day): 84% | MCH (tissue Blood, time 28 day): 19.8 pg | MCHC (tissue Blood, time 28 day): 35% | MCV (tissue Blood, time 28 day): 56.4 fL | Mono (tissue Blood, time 28 day): 1.6% | Neu (tissue Blood, time 28 day): 12.4% | PT (tissue Blood, time 28 day): 12.4 s | Plat (tissue Blood, time 28 day): 107.4 x10_4/uL | RBC (tissue Blood, time 28 day): 757.4 x10_4/ul | Ret (tissue Blood, time 28 day): 2.4% | WBC (tissue Blood, time 28 day): 107.5 x10_2/uL | KIDNEY_L (time 7 day): 1.2 g | KIDNEY_R (time 7 day): 1.2 g | KIDNEY_TOTAL (time 7 day): 2.4 g | KIDNEY_L (time 14 day): 1.3 g | KIDNEY_R (time 14 day): 1.3 g | KIDNEY_TOTAL (time 14 day): 2.6 g | KIDNEY_L (time 28 day): 1.5 g | KIDNEY_R (time 28 day): 1.5 g | KIDNEY_TOTAL (time 28 day): 2.9 g | LIVER (time 7 day): 13 g | LIVER (time 14 day): 14.5 g | LIVER (time 28 day): 17.7 g | A/G (time 7 day): 1.5 | ALP (time 7 day): 943.4 IU/L | ALT (time 7 day): 32.8 IU/L | AST (time 7 day): 63.2 IU/L | BUN (time 7 day): 16.4 mg/dL | CRE (time 7 day): 0.4 mg/dL | Ca (time 7 day): 10.8 mg/dL | Cl (time 7 day): 101 meq/L | DBIL (time 7 day): 0.1 mg/dL | GLC (time 7 day): 192.8 mg/dL | IP (time 7 day): 6.9 mg/dL | K (time 7 day): 4.4 meq/L | LDH (time 7 day): 238.6 IU/L | Na (time 7 day): 139.8 meq/L | PL (time 7 day): 166.8 mg/dL | RALB (time 7 day): 3.5 g/dL | TBIL (time 7 day): 0.2 mg/dL | TC (time 7 day): 79.4 mg/dL | TG (time 7 day): 141 mg/dL | TP (time 7 day): 5.8 g/dL | gamma-GTP (time 7 day): 0.6 IU/L | A/G (time 14 day): 1.4 | ALP (time 14 day): 818 IU/L | ALT (time 14 day): 34.4 IU/L | AST (time 14 day): 60.6 IU/L | BUN (time 14 day): 16.6 mg/dL | CRE (time 14 day): 0.4 mg/dL | Ca (time 14 day): 10.4 mg/dL | Cl (time 14 day): 101.6 meq/L | DBIL (time 14 day): 0.1 mg/dL | GLC (time 14 day): 218.2 mg/dL | IP (time 14 day): 6.7 mg/dL | K (time 14 day): 3.7 meq/L | LDH (time 14 day): 189.6 IU/L | Na (time 14 day): 140 meq/L | PL (time 14 day): 153.2 mg/dL | RALB (time 14 day): 3.4 g/dL | TBIL (time 14 day): 0.2 mg/dL | TC (time 14 day): 66.4 mg/dL | TG (time 14 day): 148.8 mg/dL | TP (time 14 day): 5.9 g/dL | gamma-GTP (time 14 day): 1 IU/L | A/G (time 28 day): 1.3 | ALP (time 28 day): 551.8 IU/L | ALT (time 28 day): 32.8 IU/L | AST (time 28 day): 54.8 IU/L | BUN (time 28 day): 16.6 mg/dL | CRE (time 28 day): 0.5 mg/dL | Ca (time 28 day): 10.4 mg/dL | Cl (time 28 day): 102.4 meq/L | DBIL (time 28 day): 0.1 mg/dL | GLC (time 28 day): 218 mg/dL | IP (time 28 day): 6.5 mg/dL | K (time 28 day): 3.6 meq/L | LDH (time 28 day): 125 IU/L | Na (time 28 day): 140 meq/L | PL (time 28 day): 162.4 mg/dL | RALB (time 28 day): 3.4 g/dL | TBIL (time 28 day): 0.2 mg/dL | TC (time 28 day): 78.4 mg/dL | TG (time 28 day): 139.2 mg/dL | TP (time 28 day): 6.1 g/dL | gamma-GTP (time 28 day): 1.2 IU/L
